According to patent US11951085B2, “Methods of treating injuries or conditions related to CNS edema” (BIOGEN CHESAPEAKE LLC, priority 2015, dated 2024):

Key:
Type in all cases: in vivo, human
[1] = tested on: MMP-9; experiment: Large Hemispheric Infarction study: MMP-9 values in blood samples; settings: blood samples at 24 hours and at 72 hours, averaged
Description: (§1) In order to determine the efficacy of SUR1-TRPM4 channel inhibitors for reducing or treating neurological conditions associated with cell swelling and CNS or cerebral edema, a randomized double blind placebo controlled clinical study was conducted. […] Within the “per protocol” group, 77 patients who were confirmed centrally to have brain lesions from 82 cc to 300 cc. Forty one of subjects were administered the test drug and 36 subjects were administered the placebo. The administration of the test drug was as follows: a bolus of 0.13 mg of the SUR1-TRPM4 channel inhibitor was administered over approximately 2 minutes followed by a continuous infusion of 0.16 mg/hr for 6 hours, and then a continuous infusion of 0.11 mg/hr for 66 hours, for a total dosing period of 72 hours. The total daily dose of Study Drug on Day 1, Day 2 and Day 3 was 3.12 mg, 2.67 mg, and 2.67 mg, respectively.
Additionally, MMP-9 values based in blood samples were taken at 24 hours and at 72 hours for the study participants and then averaged. MMP-9 levels are known to rise after stroke and are believed to represent blood brain barrier dysfunction. The MMP-9 average values are shown in Table 8 below, and graphed in FIG. 7.

[2] = tested on: subjects with TBI having lesional blood (contusion); experiment: Randomized double blind placebo controlled study in Traumatic Brain Injury (MRI edema, GOSE)
Description: The administration of the test drug was as follows: a bolus of 0.13 mg of the SUR1-TRPM4 channel inhibitor was administered over approximately 2 minutes followed by a continuous infusion of 0.16 mg/hr for 6 hours, and then a continuous infusion of 0.11 mg/hr for 66 hours, for a total dosing period of 72 hours. The total daily dose of Study Drug on Day 1, Day 2 and Day 3 was 3.12 mg, 2.67 mg, and 2.67 mg, respectively. All subjects were assessed by MRI scans at baseline and 72 hours.
The 14 subjects (7 drug and 7 placebo) identified as having evidence of lesional blood (i.e., blood associated with a contusion) at baseline and having MRI scans at both baseline and 72 hours were assessed for edema using MIM software version 5.6. Blinded readers ascertained x, y, z measurements of the total apparent contusion using T2 images, unless missing, in which case, DTI images were used. Only contusions that could be reliably measured (measuring at least about 1 cc) were measured. Readers also ascertained the volume measurements of hemorrhages in a similar manner using SWI images. Linear measurements were captured in centimeters (cm) and all volumes in cubic centimeters (cc). Volumes were calculated using the ABC/2 standard. The volume of apparent edema was calculated as the difference between the overall apparent contusion volume and the volume of the hemorrhage. For analysis, if there were multiple lesions, the volumes of all lesions meeting the threshold were combined.

[3] = Large Hemispheric Infarction study: blood glucose monitoring; settings: one patient, receiving 10 wt % dextrose solution; infusion rate reduced by 30% and glucose stabilized
Description: as §1
a) During the Double Blind Placebo Controlled Study, there was a lab confirmed blood glucose level that dropped to 51 mg/dL which was recorded for one of the patients who was receiving a 10 wt % dextrose solution.

[4] = tested on: subjects with Large Hemispheric Infarction (brain lesions of 82 cc to 300 cc); experiment: Randomized double blind placebo controlled study in Large Hemispheric Infarction: clinical outcomes (mortality, mRS, Barthel Index, EQ-5D); design: median mRS / EQ-5D Median Difference: scale not given here; settings: for Difference in 90 Day Score of mRS 0-4: Test Drug Group versus Placebo Group
Description: as §1
The incidence of mortality in the individuals was recorded at both 30 and 90 days following treatment. The Reduction in Mortality as a result of administration of the SUR1-TRPM4 channel inhibitor is shown in Table 2 below, and graphed in FIG. 1.
Additional mortality data was collected as it related to drug and placebo treatment with and without a Decompressive Craniectomy (DC). Essentially, the incidence of mortality was recorded for study participants that passed away following a DC prior to the end of the study period. The incidence of mortality when a DC occurred compared to no DC is shown in Table 3 below, and graphed in FIG. 2.
The subjects in this study were also tested using the modified Rankin Scale (mRS). One way to assess outcome in large strokes, such as those studied, is to determine the percentage of patients in each group who have a mRS of 0-4 at 90 days after stroke. The results of the 90 day mRS study is shown in Table 4 below, and graphed in FIG. 3.
The Barthel Index is another functional outcome that can be used to assess outcome of stroke patients. The subjects of the study were also scored using the Barthel index both initially and again at about 90 days. The degree of improvement in the Barthel index scores are shown in Table 5 below and graphed in FIG. 4.
Mortality can be multifactorial and may depend on factors such as preexisting comorbidities and risk factors. […] Specifically, cause of death was adjudicated by three adjudicators blinded to study drug group. Imaging and clinical data were used to determine, among other outcomes, cause of death. […] Consistent with our proposed mechanism of action, mortality attributable to edema was the driver behind reductions in overall mortality.
The magnitude of difference between placebo and treatment arms on the mRS as an ordinal scale is frequently measured using the Mann-Whitney test and a common odds ratio (OR) may be derived using the proportional odds methodology to explore effect size. In accordance with this, a common OR of 1.2 represents a clinically meaningful difference. The OR for effect size in patients ≤70 in the per-protocol population was 2.49, which represents a substantial clinical effect.
The Barthel Index (BI) is a measure of activities of daily living. It has been widely used and accepted in stroke trials and is one of the more prevalent scales used in acute stroke. In one example, a minimum clinically important change that is beyond measurement error is about 20 points on the 100-point scale, which was used as a benchmark in this study. The median delta or differences seen in the ≤70 per-protocol population at 90 days, 6 months, and 12 months between drug and placebo were 35, 27.5, and 45, respectively, all exceeding the accepted threshold. A common interpretation of the BI considers a score of ≤40 to be a clearly bad outcome, whereas a score of ≥60 is a clearly good outcome.
The EuroQol-5D (EQ-5D) is a generic instrument used to assess quality of life in a variety of conditions, including stroke. […]

[5] = Full per-protocol population, 6 Months
[6] = Full per-protocol population, 12 Months
[7] = PP ≤ 9 hr (drug in 9 hours or less), N 33 (14/19)
[8] = patients ≤70, per-protocol population
[9] = ≤70 per-protocol population, 6 Months
[10] = ≤70 per-protocol population, 12 Months
[11] = ≤70 per-protocol population, Day 90

COc1ccc(Cl)cc1C(=O)NCCc1ccc(S(=O)(=O)NC(=O)NC2CCCCC2)cc1 [glyburide]
MMP-9 Average [1]: 193.18 ng/mL | evolution (growth) of edema from baseline to 72 hours ([2]; 7 drug subjects with lesional blood, MRI volume, placebo 10.28-fold): 2.14 fold | mean Glasgow Coma Scale Extended score (GOSE) ([2]; at 180 days, placebo 6.17): 6 | drug-related effects in non-lesioned subjects or areas of the brain without a lesion ([2]; in vivo): No drug-related effects were detected | lab confirmed blood glucose level [3]: 51 mg/dL | % Death 30 days ([4]; 41 individuals, per protocol): 14.6% | % Death 90 days ([4]; 41 individuals, per protocol): 17.1% | EQ-5D Median Difference [4, 5]: 0.34 | Survival OR [4, 5]: 2.63 | mRS OR [4, 5]: 1.88 | EQ-5D Median Difference [4, 6]: 0.14 | Survival OR [4, 6]: 2.54 | mRS OR [4, 6]: 1.64 | EQ-5D Median Difference ([4]; Full per-protocol population, 90 Days, drug vs placebo): 0.30 | Survival OR ([4]; Full per-protocol population, Day 90): 2.74 | mRS OR ([4]; Full per-protocol population, Day 90, ordinal): 1.91 | Mortality OR ([4]; PP population, N 77 (36/41), logistic regression): 2.75 | mRS 0-6 OR ([4]; PP population, N 77 (36/41), ordinal logistic regression): 1.91 | Mortality OR [4, 7]: 2.96 | mRS 0-6 OR [4, 7]: 2.31 | Difference in 90 Day Score of mRS 0-4 [4]: 14.6% | Difference in 90 Day Score of mRS 0-4 ([4]; listed as Test Drug): +14.6% | "zero effect" lesion size ([4]; by extrapolation, mRS shift OR of 1): about 100 cc | EQ-5D median difference between drug and placebo ([4]; full and ≤70 per-protocol populations, all time points): greater than 0.12 | Mortality with DC ([4]; number of deaths among 13 individuals receiving decompressive craniectomy): 2 | Mortality without DC ([4]; number of deaths among 28 individuals with no decompressive craniectomy): 5 | Mortality 90 days (includes 30 day values) ([4]; number of deaths among 41 individuals, per protocol): 7 | Mortality 30 days ([4]; number of deaths among 41 individuals, per protocol, 30 days following treatment): 6 | effect size at the mRS 0-3 dichotomization [4, 8]: 14% | effect size at the mRS 0-4 dichotomization [4, 8]: 22% | Adjudicated mortality due to edema ([4]; per-protocol group (1/41), placebo 22.22% (8/36), p=0.01): 2.44% | 90 Day Score of mRS 0-4 ([4]; percentage of patients with mRS 0-4 at 90 days after stroke): 61.4% | median mRS ([4]; treated group, median of 5 in the placebo): 4 | EQ-5D Median Difference [4, 9]: 0.29 | Survival OR [4, 9]: 3.47 | mRS OR [4, 9]: 2.33 | EQ-5D Median Difference [4, 10]: 0.30 | Survival OR [4, 10]: 4.00 | mRS OR [4, 10]: 2.24 | EQ-5D Median Difference ([4]; ≤70 per-protocol population, 90 Days): 0.29 | Survival OR [4, 11]: 3.88 | mRS OR [4, 11]: 2.49
